Assay [1] concerns HAMP gene expression in Huh7 hepatocytes. The assay is described as follows: HAMP gene expression (RT-qPCR), Huh7. Format: cell-based, human. The conditions noted are these: IL-6/BMP-9 induced Huh7, 18 hrs; ND 15 μM, CMK 25 μM. For orientation: Real-time PCR tracks product formation cycle by cycle.
Procedure: Cells were seeded at a density of 1.5×10^6 per T25 flask in 5 mL culture medium and allowed to reach 50% confluency. At time 0, the cells received fresh media and were then simultaneously treated with either nelfinavir or darunavir alone, or nelfinavir and darunavir at varying concentrations (2.5/2.5 μM, 5/5 μM and 7.5/7.5 μM) and induced with IL-6 and BMP-9 (10 ng/mL each) for 18 hours. […] Control groups not being induced with cytokines, are designated as ‘Healthy’.
RNA was isolated by washing tissue culture in 1×PBS, before applying QIAzol lysis reagent (Cat #79306). RNA was then purified on RNeasy mini kit columns (Cat #74104) from Qiagen. All samples were treated with Qiagen DNase (Cat #79254). Two micrograms of RNA were used for reverse transcription and subsequent SYBR® Green ROX real time PCR for the genes of interest. Reverse transcription kits (Cat #330401) and SYBR Green real-time PCR master mixes (Cat #330523) were from Qiagen (Louisville, KY). […]
Real time quantitative PCR was performed on an Applied Biosciences StepOne plus instrument and analyzed with StepOne software v2.3. The relative amounts of transcripts from each gene were normalized to reference gene GAPDH and calculated as follows: ΔΔCT=the average ΔCT of sample B−the average ΔCT of sample B, and their fold difference=2−^ΔΔCT.
The next assay concerns pSTAT3 in Huh7 cells. The assay is described as follows: STAT3 phosphorylation Western blot after IL-6 induction, Huh7. Type of assay: cell-based, human. The conditions noted are these: for inhibition of STAT3 phosphorylation (in words): 0-60 μM, IL-6 50 ng/mL. As to the method: For the STAT3 and Smad4 experiments, the cells were seeded at a density of 1.5×10^5 per flask in 5 mL of culture medium and allowed to reach 70% confluency. At time 0, the cells received fresh media and were treated with nelfinavir, ritonavir, darunavir or indinavir, at concentrations ranging from 0 to 60 μM for three hours, and then induced with IL-6 or BMP-9 (Cat, #200-06 and 120-07, PeproTech, Rocky Hill, NJ) 50 ng/mL, for 30 minutes.
After treatments, cultured cells were washed with ice-cold PBS and lysed by adding ice-cold RIP A buffer containing 50 mM Tris-HCl (pH 8), 150 mM NaCl, 1% Triton X-100, 0.5% sodium deoxycholate, 0.1% SDS, 5 mM EDTA and IX protease/phosphatase cocktail inhibitor (Thermo Fisher Scientific, Waltham, MA), Cells were scraped off the flask and were further disrupted by passing the solution through a 21 gauge needle. The extracts were then transferred to a microfuge tube and centrifuged for 20 min at 12000 rpm. Protein concentration was determined with a Lowry assay and equal amounts of the resulting protein (30 μg) were separated by 8% SDS-PAGE and then transferred to a nitrocellulose membrane (Bio-Rad).
After transfer, the membranes were blocked in Odyssey™ Blocking Buffer (927-40100, LI-COR Biosciences, Lincoln, NE) at room temperature, for 1 hour. Primary antibodies were diluted in blocking solution containing 0.2% Tween and incubated overnight at 4° C. with polyclonal antibody to ferroportin (rabbit, 1:1000 dilution; PAS-2293, Thermo Scientific, Waltham, MA), phospho-STAT3 Tyr705 and STAT3 (1:1000 dilution, (Cat. #9145 and 9139 respectively, Cell Signaling Technology, Beverly, MA). Blots were normalized by probing the membranes with either a p-actin or glucose-6-phosphate dehydrogenase polyclonal antibody (Cat. #3700 and 8866 respectively, Cell Signaling Technology, Beverly, MA). After incubation and washing with PBS-T, the membranes where incubated in the dark, in blocking solution with 0.2% Tween with IRDye 800CW Goat anti-Rabbit IgG and IRDye® 680RD Donkey anti-Mouse IgG (1:10000, LI-COR Biosciences, Lincoln, NE) for 1 hour at room temperature. The proteins were detected and visualized by fluorescence using the Odyssey Classic (LI-COR Biosciences, Lincoln, NE). Densitometry analysis of specific bands was performed with the Image Studio software.
To assess whether PIs abrogate the IL-6 signaling cascade, STATS phosphorylation (pSTAT3) was measured in the hepatocyte cell lines. PIs were incubated with both Huh7 and HepG2 cell lines for 3 hours, before the addition of IL-6 (50 ng/mL) for 30 minutes. Concentrations of PIs ranged from 0-60 μM. Following 30 minutes of IL-6 induction, cells wore immediately lysed, and proteins harvested for Western blot analysis. Untreated hepatocyte control cells are designated as healthy.
On the technique in general: In western blotting, separated proteins are transferred to a membrane and probed.

In assay [2] the test system is hepcidin-25 in Huh7 cell media. The assay is described as follows: Hepcidin-25 quantification in Huh7 cell media by mass spectrometry. Type of assay: cell-based, human. As to conditions: single PI at 15 μM, IL-6 and BMP-9 10 ng/mL each, 18 hrs.
Procedure: Cells were seeded at a density of 1.5×10^6 per T25 flask in 5 mL culture medium and allowed to reach 50% confluency. At time 0, the cells received fresh media and were then simultaneously treated with either nelfinavir or darunavir alone, or nelfinavir and darunavir at varying concentrations (2.5/2.5 μM, 5/5 μM and 7.5/7.5 μM) and induced with IL-6 and BMP-9 (10 ng/mL each) for 18 hours. After 18 hours, 2 mL of media were collected, aliquoted and flash frozen for mass spectrometry (MS) analysis. Control groups not being induced with cytokines, are designated as ‘Healthy’.
Detection of Hepcidin-25 isoform was completed using an HPLC-MS/MS method with an Eksigent NanoLC HPLC with a Thermo Scientific C-18 reverse-phase column coupled via Thermo Scientific Nanospray ESI soft ionization source to a Thermo Scientific LTQ/Orbitrap XL mass spectrometer (MS). Samples were prepared for MS using an in-house developed enrichment and purification protocol. […]
The mass spectrometer was tuned and calibrated to a pure human recombinant hepcidin-25 solution. […] Peaks with isotopic envelopes corresponding to [M+5H+] and [M+6H+], 651.8 m/z and 543.3 m/z for 2-iodoacetamide, 818.5 m/z and 682.2 m/z for 2-iodo-N-(phenylethyl)-acetamide respectively, were detected in all samples and were not observed in the protocol blank. […] Quantification was completed using in-house developed ion chromatogram extractor software that allowed positive isolation of unfragmented peaks by m/z and chromatographic elution windows for total spectral ion count summation. Samples were intensity normalized to hepcidin-25 detected in healthy culture media for each dataset.
Sample preparation consisted of three phases: 1) ultra-filtration to remove large abundant proteins and media debris; 2) earboxamidomethylation of cysteine residues; and 3) 2-phase extraction of lipid substituents and subsequent concentration by speed-vac. […] Data was recorded at a resolution of 100,000 over the course of a two-hour method. Detected intensities were totaled using in-house developed ion-chromatogram extractor software. […]
Assay [3] relates to Female Lewis rats (PG-LPS model of ACI). The assay is described as follows: PG-LPS rat model of anemia of chronic inflammation. Type of assay: in vivo. As to conditions: for serum hepcidin, lower than in PG-LPS rats / serum prohepcidin, higher than in PG-LPS rats: ELISA; for Hb (g/dL) Day 0 / Hb (g/dL) Day 62: nelfinavir with ritonavir by oral gavage.
The next assay has as its target T1, Recombinant human furin (Homo sapiens, UniProt P09958).
T1 construct: purchased New England BioLabs (Ipswich, MA)
The assay is described as follows: In vitro fluorogenic furin activity assay. Type of assay: biochemical. The conditions noted are these: for inhibition of furin activity in the drug screen: fluorogenic substrate BOC-Arg-Val-Arg-Arg-AMC, FIG. 9 / FIG. 22; for fluorescence (furin activity): single drug at 110 and 220 μM, 50-minute time course. The procedure: Recombinant human furin was purchased from New England BioLabs (Ipswich, MA). Fluorogenic furin convertase substrate BOC-Arg-Val-Arg-Arg-AMC (AMC=7-Amino-4-methylcoumarin) from Enzo Life Sciences (Farmingdale, NY) and HIV aspartyl protease inhibitors (Sigma) were dissolved in DMSO. Protease inhibitory′ drugs were prepared at a. concentration of 10 mg/mL and stored at room temperature. Furin Inhibitor II chloromethylketone was purchased from EMD Millipore (Darmstadt, Germany).
The assay was performed at pH 7.5 in buffer 50 mM HEPES, 1 mM CaCl2, 1 mM β-mercaptoethanol, 0.2 mg/mL BSA. In a total volume of 100 μL, the final concentration per well of substrate enzyme was 10 μM and 1 U/well respectively. All assays were performed at 37° C. in a 96-well fluorometer (BioTek Synergy H4 Hybrid reader) with an excitation wavelength of 345 nm and an emission wavelength of 420 nm.
Inhibitory small molecules were incubated with enzyme for 1 hour at 37° C. prior to addition of substrate to initiate the reaction. All assays were performed in triplicate. Inhibition constants were calculated based on methods previously described (Lineweaver, H. & Burk, D. The Determination of Enzyme Dissociation Constants. J. Am. Chem. Soc. 56, 658-666 (1934)). […]
The molecular docking studies predicted that PIs bind to the catalytic site of furin as well as to a putative allosteric site on furin (FIGS. 7A and 7B). A fluorescence assay was used to monitor furin activity. Furin has substrate specificity for the multi-basic consensus amino-acid sequence of Arg-X-Lys/Arg-Arg (RXRR) at the cleavage site, where X represents a neutral, polar amino acid. Peptide substrates including the furin cleavage sequence having an attached fluorescent tag were used. A fluorescence tag is quenched when it is attached to the peptide, but when furin cleaves the peptide the fluorophore is released and is able to fluoresce. The inhibitory effect of the PIs in this assay can be characterized through a positive control, in which furin actively cleaves substrate without the presence of an inhibitor.

[4] abbreviates: PG-LPS rats, listed as nelfinavir.
Setting [5] is: Treated Control (no PG-LPS), n = 4.

SMILES strings stand for the structures. “Also recorded” adds a separate entry of the source.

T1 sequence (P09958 108-794): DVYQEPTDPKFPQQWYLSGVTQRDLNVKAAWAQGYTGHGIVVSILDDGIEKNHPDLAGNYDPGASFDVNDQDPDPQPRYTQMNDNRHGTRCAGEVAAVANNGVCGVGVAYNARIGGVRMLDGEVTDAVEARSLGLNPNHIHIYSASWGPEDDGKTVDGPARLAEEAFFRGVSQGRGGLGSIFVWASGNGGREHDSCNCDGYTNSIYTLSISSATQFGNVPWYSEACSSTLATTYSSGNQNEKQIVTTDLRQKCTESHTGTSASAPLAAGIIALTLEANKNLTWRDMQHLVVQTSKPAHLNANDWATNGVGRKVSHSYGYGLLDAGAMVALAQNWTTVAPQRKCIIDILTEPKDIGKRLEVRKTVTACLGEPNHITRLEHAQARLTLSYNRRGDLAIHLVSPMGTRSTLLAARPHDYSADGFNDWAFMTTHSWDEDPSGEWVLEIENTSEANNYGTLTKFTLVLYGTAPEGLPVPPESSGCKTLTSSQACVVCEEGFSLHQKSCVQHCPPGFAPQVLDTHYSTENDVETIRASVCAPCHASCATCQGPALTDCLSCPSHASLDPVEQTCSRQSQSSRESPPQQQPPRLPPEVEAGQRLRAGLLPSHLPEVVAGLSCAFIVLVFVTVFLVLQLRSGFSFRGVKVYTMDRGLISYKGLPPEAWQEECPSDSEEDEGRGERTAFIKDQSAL

As for `Cc1c(O)cccc1C(=O)N[C@@H](CSc1ccccc1)[C@H](O)CN1C[C@H]2CCCC[C@H]2C[C@H]1C(=O)NC(C)(C)C` [Nelfinavir], the HAMP gene expression result in assay [1] was “significant inhibitory effect”. Further, the “inhibition of STAT3 phosphorylation (in words)” value (“inhibition … (in words)” for short) in the assay with pSTAT3 in Huh7 cells is “inhibiting STAT3 phosphorylation in a dose dependent manner; also recorded: concentration dependent manner; also recorded: dose dependent inhibition”. Besides, in the assay with pSTAT3 in Huh7 cells (Homo sapiens, Huh-7, 5 μM, 3 hrs before IL-6 50 ng/mL 30 min), at 5 µM the inhibition was 27%. In addition, the inhibition (as a rule, how much of the control response was suppressed) at 15 µM with pSTAT3 in Huh7 cells (Homo sapiens, Huh-7, 15 μM, 3 hrs before IL-6 50 ng/mL 30 min) worked out at 46%. Moreover, in assay [2], the “production of mature secreted hepcidin” value is recorded as “back to basal levels”. Further, in assay [3] (ICP-MS), the “iron in bone marrow, PG-LPS rats” value was “increased significantly” and the “iron in serum, PG-LPS rats” value is “increased significantly”. The “liver iron content, PG-LPS rats” value in assay [3] (PG-LPS PI treated group) is given as “dropped”. Also, in assay [3] (PG-LPS rats), the “more serum iron than PG-LPS treated rats” value is recorded as approximately 25%; the “recovery of hemoglobin and hematocrit” value is “did not demonstrate a recovery”; the “serum hepcidin, lower than in PG-LPS rats” value is recorded as approximately 2 fold; the “serum prohepcidin, higher than in PG-LPS rats” value is listed as approximately 2.5 fold. Further, in assay [3] (setting [4]), the “serum hepcidin, lower than in PG-LPS rats” value is given as “approximately 2 fold”; the “serum prohepcidin, higher than in PG-LPS rats” value is reported as “approximately 2.5 fold”; the “recovery of hemoglobin and hematocrit” value is reported as “did not significantly recover”. Also, in assay [3] (PG-LPS rats, ritonavir co-administered), the increase of prohepcidin came to 148%. Besides, the “inhibition of mature hepcidin production” value in assay [3] (PG-LPS rats, therapeutic serum concentration 4 ng/mL, ritonavir co-administered) was found to be 47%. In assay [3] (PG-LPS treated animals, qPCR), the “transcription of HAMP mRNA in liver” value is given as “did not show any statistically significant changes”. Also, in assay [3] (setting [5]), the “Hb (g/dL) Day 0” value is reported as 14.4 ± 0.4 g/dL and the “Hb (g/dL) Day 62” value worked out at 15.2 ± 0.2 g/dL. Moreover, in assay [3] (Treated Control, n = 4), the “HCT (%) Day 0” value amounted to 41.5 ± 0.9%, the “HCT (%) Day 62” value is 44.6 ± 2.7%, the “MCV (fl) Day 0” value was determined as 55.3 ± 0.7 fL and the “MCV (fl) Day 62” value was determined as 49.7 ± 0.5 fL. Also, in assay [3] (Treated Control, n = 4), the “RDW (%) Day 0” value was 12.6 ± 0.1% and the “RDW (%) Day 62” value is listed as 37.2 ± 0.7%. Also, in assay [3] (Treated PG-LPS, n = 7), the “HCT (%) Day 0” value was found to be 41.5 ± 2.4%, the “HCT (%) Day 62” value worked out at 37.6 ± 3.9%, the “MCV (fl) Day 0” value came out at 55.8 ± 1.5 fL and the “MCV (fl) Day 62” value came to 46.7 ± 0.6 fL. Further, in assay [3] (Treated PG-LPS, n = 7), the “RDW (%) Day 0” value was 13.6 ± 2.5%, the “RDW (%) Day 62” value was 42.8 ± 1.2%, the “Hb (g/dL) Day 0” value is reported as 14.1 ± 1.1 g/dL and the “Hb (g/dL) Day 62” value is given as 13.0 ± 1.1 g/dL. For the same compound, the “liver ferroportin, PG-LPS rats (in words)” value in assay [3] (Western blot) is on record as “significantly higher”. Moreover, the “increase in liver ferroportin, healthy rats” value in assay [3] (healthy treated rats) was approximately 3 fold. For the same compound, in assay [3] (healthy treated vs healthy), the “hepcidin levels, healthy rats” value is listed as “slightly higher”; the “liver iron content, healthy rats” value is “dropped significantly”; the “prohepcidin levels, healthy rats” value was “much higher”; the “serum iron, healthy rats” value is on record as “not significantly different”. In addition, the “increase of ferroportin expression in animal liver” value in assay [3] (ritonavir co-administered) is 2.5 fold. At Recombinant human furin, the “type of inhibition (Lineweaver-Burk)” value is “competitive inhibition”, the “inhibition of furin activity in the drug screen” value is on record as “three best inhibitors” and the “fluorescence (furin activity)” value was “decreased fluorescence”.

With `CC(C)c1nc(CN(C)C(=O)N[C@H](C(=O)N[C@@H](Cc2ccccc2)C[C@H](O)[C@H](Cc2ccccc2)NC(=O)OCc2cncs2)C(C)C)cs1` [Ritonavir], the results for the “inhibition … (in words)” value with pSTAT3 in Huh7 cells and in the assay with pSTAT3 in Huh7 cells (listed as ritonavir) were “not concentration dependent” and “dose dependent inhibition”, respectively. The “inhibition of STAT3 phosphorylation” value with pSTAT3 in Huh7 cells (all concentrations tested) is listed as approximately 25%. The “average pSTAT3 inhibition” value in the assay with pSTAT3 in Huh7 cells (doses 5-30 μM) is 27%.

`CC(C)CN(C[C@@H](O)[C@H](Cc1ccccc1)NC(=O)O[C@H]1CO[C@H]2OCC[C@H]21)S(=O)(=O)c1ccc(N)cc1` [Darunavir, [(1R, 5S, 6R)-2,8-dioxabicyclo[3.3.0]oct-6-yl] N-[(2S, 3R)-4-[(4-aminophenyl)sulfonyl-(2-methylpropyl)amino]-3-hydroxy-1-phenyl-butan-2-yl] carbamate]: in the assay on pSTAT3 in Huh7 cells, the “inhibition … (in words)” value was “no signs of pSTAT3 inhibition; also recorded: did not show any statistically significant inhibition; also recorded: Neither darunavir nor indinavir inhibits STAT3 phosphorylation”. The “production of mature secreted hepcidin” value in assay [2] is recorded as “back to basal levels”. On Recombinant human furin, the “type of inhibition (Lineweaver-Burk)” value is “uncompetitive inhibition”, the “inhibition of furin activity in the drug screen” value is on record as “three best inhibitors” and the “fluorescence (furin activity)” value is on record as “decreased fluorescence”.

`CC(C)(C)NC(=O)[C@@H]1CN(Cc2cccnc2)CCN1C[C@@H](O)C[C@@H](Cc1ccccc1)C(=O)N[C@H]1c2ccccc2C[C@H]1O` [Indinavir]: in the assay with pSTAT3 in Huh7 cells, the “inhibition … (in words)” value is “no signs of pSTAT3 inhibition; also recorded: did not show any statistically significant inhibition; also recorded: Neither darunavir nor indinavir inhibits STAT3 phosphorylation”.

The record behind these values is US12208107B2, “Method and compositions for the treatment of anemia through the inhibition of furin” (Brigham Young University, priority 2016, dated 2025).
